Results from patent US20040116354A1, “Supplementary immunotherapeutics to be used after lung cancer removal” (priority 2001, published 2004).

Columns and labels:
[1] = system: lung squamous cell carcinoma in the histopathological stage I; assay: multicenter double blind comparative clinical test, ubenimex preparation vs placebo after complete resection; type: in vivo, human
Experimental: With complete resection patients of lung squamous cell carcinoma in the histopathological stage I, a multicenter double blind comparative test using an ubenimex preparation (containing 30 mg ubenimex) and a placebo preparation (a control contentaining no ubenimex) was carried out. The ubenimex preparation or the placebo preparation was administered orally once a day. The dosing period of these preparations was 2 years after surgical resection. The observation period was 5 years or more including the subsequent period of 3 years or more of no administration after the dosing period. The survival time and recurrence-free survival time in the collected 389 cases (189 cases at the stage IA and 200 cases at the stage IB) were compared between the two groups, namely the ubenimex group and the placebo group by the Kaplan-Meier method. Tables 1 and 2 show the results of the statistic analysis by the generalized Wilcoxon test and the Log-Rank test. […] In these tables, the “U group” means the ubenimex-administered group and the “P group” means the placebo-administered group.

mice = conditions: 298 mg/kg (i.p.); cited from earlier work
humans = system: humans; design: dose or concentration left out as unconfirmed; conditions: cited from earlier work
[2] = system: lung squamous cell carcinoma; conditions: histopathological stage I; 30 mg daily for one year or longer; 21 cases; with or without tegaful; cited from earlier work
[3] = system: non-small cell lung cancer; conditions: histopathological stages I and II; 90 mg twice weekly for 5 years; 227 cases; cited from earlier work
[4] = Stage IA (189 cases), 30 mg orally once a day for 2 years
[5] = Stage IB (200 cases), 30 mg orally once a day for 2 years
[6] = total cases stage I (389 cases), 30 mg orally once a day for 2 years after resection, Kaplan-Meier

With `CC(C)C[C@H](NC(=O)[C@@H](O)[C@H](N)Cc1ccccc1)C(=O)O` [ubenimex, (−)-N-((2S, 3R)-3-amino-2-hydroxy-4-phenylbutyryl)-L-leucine] the “incidence of appetite loss (only adverse effect significantly occurring)” value ([1]; 30 mg orally once a day for 2 years) was 2.5%, the “5-year recurrence-free survival ratio” value [1, 4] was 73% and the “5-year survival ratio (survival time)” value [1, 4] was 84%. The “5-year recurrence-free survival ratio” value [1, 5] was 68%, the “5-year survival ratio (survival time)” value [1, 5] was 77% and the “5-year recurrence-free survival ratio” value [1, 6] was 70%. For the same compound, the “5-year survival ratio (survival time)” value [1, 6] was 81%, the toxicity in mice (mice) was “no observed toxicity” and the “adverse effects in humans” value (humans) was “no specific adverse effects observed”. The “survival time vs ubenimex non-administered group” value [2] was “prolonged” and the “recurrence-free survival time vs non-administered group” value [3] was “favorable trend compared with the non-administered group in terms of recurrence-free survival time but the trend is far from significance”.
